Results published in patent US20230390214A1, “ADHESIVE PATCH” (TOYO INK SC HOLDINGS CO., LTD., priority 2020, published 2023).

Assay: Solubility of the drug in levulinic acid at 35° C. (visual observation)
Assay type: physicochemical
Details: in 1 mL of levulinic acid at a liquid temperature of 35° C.
Experimental: The adhesive layer includes a drug. A drug that can be dissolved in levulinic acid is preferable. For example, it is preferable that 0.1 g or more of the drug can be dissolved in 1 mL of levulinic acid at a liquid temperature of 35° C.
Specifically, the solubility of the drug is determined as follows. One mL of levulinic acid is put into a test tube and kept at 35° C. to obtain liquid levulinic acid. To the liquid levulinic acid, 0.1 g of the drug is added to obtain a mixed liquid. While keeping the mixed liquid at 35° C., the mixed liquid in the test tube is vibrated for 10 minutes using an ultrasonic cleaner (e.g., a glasses cleaner). After removing the test tube from the ultrasonic cleaner and leaving it in an environment of 35° C. for 4 hours, the mixed liquid in the test tube is visually observed to check for the presence of residues or precipitates of the drug. In a case where no drug residues or precipitates are observed in the mixed liquid, it is determined that 0.1 g or more of the drug can be dissolved in 1 mL of levulinic acid at a liquid temperature of 35° C. Furthermore, in a case where drug residues or precipitates are observed in the mixed liquid, it is determined that 0.1 g or more of the drug cannot be dissolved in 1 mL of levulinic acid at a liquid temperature of 35° C.

Amount of drug that can be dissolved in 1 mL of levulinic acid, ≥ 0.1 g:
CCN1CCN(c2cc(-c3ccc(F)cc3)c3c(n2)CCCCCC3)CC1 [blonanserin]
N=C(N)NC(=O)Cc1c(Cl)cccc1Cl [guanfacine]
CCCN(CCc1cccs1)[C@H]1CCc2c(O)cccc2C1 [rotigotine]
